Marks after values point to notes of the source that are not given here.
Assays:
Format in all cases: in vivo
[1] = system: Myzus persicae clone highly resistant to insecticide; assay: Contact test on treated plant (pea seedling dip), synergist with neonicotinoid; details: synergist 1 g/L, mortality assessed at 48 hours, Abbott's formula
Protocol: Laboratory bred Myzus persicae clone highly resistant to insecticide, derived from a field collected population after control failure, mixed age apterous parthenogenetic females adults, were assayed for the test.
Four (4) different commercially available formulated insecticides were used and diluted as follow: • imidacloprid: 1000 mL of test solution was prepared diluting in water 20 μL of commercial formulation, containing 200 g/L of a.i., equivalent to 0.004 g of imidacloprid per liter of insecticidal solution; • thiacloprid: 1000 mL of test solution was prepared diluting in water 24 μL of commercial formulation containing 480 g/L of a.i, equivalent to 0.012 g of thiacloprid per liter of insecticidal solution;
The compounds of Example 1 and Example 2 were formulated in the form of emulsified concentrate (EC).
The following amount of the EC formulations were added to the above described insecticidal solution of insecticide to have a final concentration of synergist equal to 1 g/L:
20 mL of test formulations were used to wet by dipping for 5″ a small pea seedling (1-1.5 cm long). Seedlings were left at room temperature in a fume hood and allowed to dry for 15″. After drying 10-15 apterous parthenogenetic females were moved to the seedling and allowed to settle. Mortality produced by pyrethroids was assessed 24 hours later. Mortality produced by neonicotinoids was assessed 48 hours later.
Three replicates were executed each composed by 2 subreplicates (seedlings) and 60-90 specimens were used per test formulation.
In parallel with the test, the mortality of aphids in an untreated control replicate (seedlings dipped in water) was determined using the same conditions and methods.
The efficacy was calculated according the Abbott's formula: […]

Musca domestica = assay: Contact test on treated glass surfaces, synergist with cypermethrin
Protocol: Laboratory bred Musca domestica species, 4-5 days old mixed sex imagoes derived from a field collected strain were assayed for the test. 1000 ml of test solutions were prepared diluting in water 6.06 grams of cypermethrin commercial formulation, equivalent to 0.224 g of cypermethrin per liter of insecticidal solution and a suitable amount of synergist such as to have a ratio between cypermethryn and synergists=1:13. The synergists were formulated in the form of emulsified concentrate (EC). The following amount of the formulations of synergist EC were added to the above described insecticidal solution of cypermethrin.
3.83 g of EC formulation containing 77.1% (w/w) of the compound of Example 2 (5-n-butyl-6-((prop-2-ynyloxy)methyl)benzo[d][1,3]dioxole)
3.57 g of EC formulation containing 83% (w/w) of the comparison compound 5-(but-2-ynyloxymethyl)-6-n-propyl-benzo[1,3]dioxole (EN126) corresponding to 2.95 g of the compound of the invention and of the comparison product per liter of test formulation
1 ml of each test formulation was applied to each individual grass surface of 100 cm^2 by means of a hand held pump sprayer on a scale measuring by 2 decimal precision, being the acceptable limit of divergence: +/−10%. The treated glass surfaces were left at room temperature for 24 hours after treatment and prior to be used. 40 mixed sex Musca domestica imagoes (20 males and 20 females) were selected and placed into a 500 cm^3 glass cylinders covered with an untreated glass surface until the start of the study. Five replicates were executed, altogether 200 houseflies (100 males and 100 females) were used per test formulation. At the beginning of the test, the untreated glass covering the glass cylinder was replaced with a glass surface treated with the test formulation. The exposure time was 30 minutes. After this period of time, the treated glass surfaces were removed and replaced with untreated ones. During the test water and food (water/sugar solution) were provided to the test insect inside the glass cylinders
In parallel with the test, the mortality of flies in an untreated control replicate was determined using the same conditions and methods. Throughout the control test, non-treated glass surfaces covered the glass cylinders. The maximum mortality rate allowed within the control group to consider the test representative was 10% after 24 hours. If above this value, the test was not considered representative and was repeated. During the trials, no deviance has been noted.
The test conditions were as follows: • temperature: 23-25° C. • relative humidity: min. 60% • light regime: 12 hrs dark/12 hrs natural illumination.
The reading intervals of the number of knocked down flies were: 10-20-30-40-50-60-90-120-180 minutes. Mortality was determined after 24 hours.
The efficacy was calculated according the following formula

Blattella germanica = assay: Contact test on treated glass vials, synergist with cypermethrin; details: cypermethrin 120 μg/mL, synergist 1.0 g/L; for knock down: average of 4 repetitions
Protocol: Laboratory bred B. germanica species, mixed ages (pre-immaginal and imagoes) and mixed sex were assayed for the test.
An insecticide stock solution was prepared with 150 μL of cypermethrin commercial formulation and diluted to 15 μL/mL with technical acetone to a final volume of 10 mL. The solution contained 450 μg/mL of cypermethrin per liter of insecticidal solution
Stock solution of the compounds of Example 1 and Example 2 were prepared dissolving around 10 mg of EC formulations containing compounds of the Example 1 and Example 2 in technical acetone to have a final concentration of 1.365 μg/mL.
Stock solution (1650 μL) was diluted to 2250 μL with acetone or with stock of insecticide in acetone to have respectively a final concentration of 1 g/L of synergist (as active ingredient) or 0.12 g/L of cypermethrin+1 g/L of the compounds of Example 1 and Example 2. Insecticide alone was prepared adding 600 μL of stock solution to 1650 μL of acetone.
Glass vials (internal surface 35 cm^2) were treated with 350 μL of insecticide solution and allowed to dry in a fume hood on a vial rotator and used as soon as the acetone was fully evaporated.
B. germanica specimens were introduced singly in vials. 20 specimens were tested for each combination of product. The exposure time to product residues was 30 minutes. After this duration the specimens were transferred to an untreated vial ad provided with food and water.
In parallel within the test, a control study has been set up with the same conditions and methods using acetone only treated vials.
The test conditions were as follows: • temperature: 22-24° C. during knock down evaluation (t: 0-30′); 26° C. during mortality assessment (t: 24 h) • relative humidity: min. 60% • light regime: 8 hrs dark/16 hrs natural illumination.
The reading intervals of the number of knocked down and the number of dead insects were: 5-10-15-20-25-30 minutes. A final reading was done 24 hours after the starting of the exposure.
The calculation model of efficacy is according to Abbott's formula (Abbott W S (1925) A method for computing the effectiveness of an insecticide. J. Econ. Entomol. 18: 265-267):
The results are reported in the following Table 5 and represent an average of 4 repetitions.

## O=[N+]([O-])NC1=NCCN1Cc1ccc(Cl)nc1 [Imidacloprid, imidacloprid, reference compound]
[1]; Imidacloprid (0.004 g per liter)
  Efficacy of the tested compounds: 14.2

## N#C/N=C1\SCCN1Cc1ccc(Cl)nc1 [thiacloprid, reference compound]
[1]; thiacloprid (0.012 g per liter)
  Efficacy of the tested compounds: 36.242

## CC1(C)C(C=C(Cl)Cl)C1C(=O)OC(C#N)c1cccc(Oc2ccccc2)c1 (centres unmarked) [Cypermethrin, cypermethrin]
Musca domestica; 24 h, 30 min exposure, cypermethrin formulation 6.06 g/l (0.224 g/l a.i.), cypermethrin:synergist 1:13
  mortality by %: 61%
Musca domestica; calculated from 24 h mortality against untreated control
  Efficacy %: 58.95%
Musca domestica; reading at 10′, 30 min exposure, cypermethrin formulation 6.06 g/l (0.224 g/l a.i.), cypermethrin:synergist 1:13
  knock down by %: 6* %
Musca domestica; reading at 20′, 30 min exposure, cypermethrin formulation 6.06 g/l (0.224 g/l a.i.), cypermethrin:synergist 1:13
  knock down by %: 46%
Musca domestica; reading at 30′, 30 min exposure, cypermethrin formulation 6.06 g/l (0.224 g/l a.i.), cypermethrin:synergist 1:13
  knock down by %: 68%
Musca domestica; reading at 40′, 30 min exposure, cypermethrin formulation 6.06 g/l (0.224 g/l a.i.), cypermethrin:synergist 1:13
  knock down by %: 83%
Musca domestica; reading at 50′, 30 min exposure, cypermethrin formulation 6.06 g/l (0.224 g/l a.i.), cypermethrin:synergist 1:13
  knock down by %: 85%
Musca domestica; reading at 60′, 30 min exposure, cypermethrin formulation 6.06 g/l (0.224 g/l a.i.), cypermethrin:synergist 1:13
  knock down by %: 85%
Musca domestica; reading at 90′, 30 min exposure, cypermethrin formulation 6.06 g/l (0.224 g/l a.i.), cypermethrin:synergist 1:13
  knock down by %: 82%
Musca domestica; reading at 120′, 30 min exposure, cypermethrin formulation 6.06 g/l (0.224 g/l a.i.), cypermethrin:synergist 1:13
  knock down by %: 76%
Musca domestica; reading at 180′, 30 min exposure, cypermethrin formulation 6.06 g/l (0.224 g/l a.i.), cypermethrin:synergist 1:13
  knock down by %: 73%
Blattella germanica; Blattella germanica, 24 h after start of 30 min exposure, Abbott's formula
  mortality at 120 µg/mL: 22.9%
Blattella germanica; reading at 5′
  knock down: 0
Blattella germanica; reading at 10′
  knock down: 6.7
Blattella germanica; reading at 15′
  knock down: 20
Blattella germanica; reading at 20′
  knock down: 40
Blattella germanica; reading at 25′
  knock down: 56.7
Blattella germanica; reading at 30′
  knock down: 60

From US10537100B2, “Substituted methylenedioxybenzyl compounds and their use as synergists” (Endura SPA, priority 2015, dated 2020)
